From patent publication US11724997B2, “Compounds and compositions for treating conditions associated with APJ receptor activity” (Annapurna Bio, Inc., priority 2018, dated 2023)

Target: T1, APJ Receptor (Homo sapiens, UniProt P35414)
T1 sequence (P35414 1-380): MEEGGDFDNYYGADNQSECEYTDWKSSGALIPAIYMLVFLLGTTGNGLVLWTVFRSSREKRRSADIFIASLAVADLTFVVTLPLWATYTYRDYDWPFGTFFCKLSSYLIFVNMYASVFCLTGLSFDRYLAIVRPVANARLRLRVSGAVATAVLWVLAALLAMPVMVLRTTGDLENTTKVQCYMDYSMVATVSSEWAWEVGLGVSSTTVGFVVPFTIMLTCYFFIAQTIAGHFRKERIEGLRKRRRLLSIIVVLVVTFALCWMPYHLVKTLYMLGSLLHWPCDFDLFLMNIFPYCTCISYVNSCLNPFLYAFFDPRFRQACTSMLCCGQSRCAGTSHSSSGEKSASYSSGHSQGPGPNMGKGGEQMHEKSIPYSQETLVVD
Experiment: APJ cAMP assay: inhibition of forskolin-stimulated cAMP, enzyme fragment complementation, in CHO-K1 cells stably expressing the APJ Receptor
Assay type: cell-based
Settings: CHO-K1 cell line (DiscoverX) stably expressing APJ Receptor; EC80 forskolin; 30 minutes at 37° C.; read-out: APJ cAMP EC50 Potency range
Text: Activation of APJ receptor is known to inhibit forskolin-stimulated cyclic AMP (cAMP) production in cells in a pertussis toxin-sensitive manner which indicates primary coupling to the GαI subunit of the G protein heterotrimeric complex. In addition to signaling through G protein and inhibition of cAMP, APJ receptor activation also results in β-arrestin recruitment, receptor internalization and activation of extracellular-regulated kinases (ERKs).
In order to optimize functional activity directed toward Gi coupling we utilized a CHO-K1 cell line developed by DiscoverX stably expressing the APJ Receptor. Cells expressing APJR receptor were plated in a 384-well microtiter plates and incubated overnight at 37° C. with 5% CO2 to allow the cells to attach and grow. Media was then aspirated from the cells and replaced with 15 uL 2:1 Hanks Balanced Salt Solution (HBSS)/10 mM Hepes. cAMP XS+ Ab reagent. Five microliters (5 uL) of previously generated compound sample stocks at 4× final concentration in assay buffer containing 4×EC80 forskolin were then added to the cells and allowed to incubate at 37° C. for 30 minutes.
After incubation the assay signal was generated using a technology termed enzyme fragment complementation (EFC). In EFC the enzyme B-galactosidase is split into two complementary portions (EA and ED). The fragment ED is fused to cAMP and in the assay format competes with endogenous cAMP for binding to a cAMP specific antibody. Activated B-Gal is formed when exogenous EA fragment binds to free ED-cAMP (not bound to cAMP specific antibody). Activated enzyme levels are detected through conversion of B-gal chemiluminescent substrate which generates a detectable luminescence signal and read on standard microtiter plate.
The methodology for detection of cAMP using EFC requires incubation with 20 uL of cAMP XS+ ED/CL lysis cocktail for one hour followed by incubation with 20 uL cAMP XS+ EA reagent for three hours at room temperature. Microplates were read following signal generation with a PerkinElmer Envision instrument utilizing chemiluminescent signal detection.
Compound activity was analyzed using CBIS data analysis suite (ChemInnovation, CA).
Percentage activity was calculated using the following formula: % Activity=[…]×(1−(mean RLU of test sample−mean RLU of Max control)/(mean RLU of vehicle control−mean RLU of Max control))
The biological activity of the exemplified compounds of this invention determined by the assay described above is shown in Table 1. The APJ cAMP EC50 potency ranges are as follows: A: EC50<1 nM; B: 1≤EC50<100 nM; and C: 100≤EC50<10,000 nM.

EC50, 1 to 100 nM:
COc1cccc(-c2nnc(C(=O)NS(=O)(=O)[C@@H](C)c3ccccc3)n2-c2c(OC)cccc2OC)n1 (single isomer, unassigned) [Example 32]
COc1cccc(-c2nnc(C(=O)NS(=O)(=O)[C@H](C)c3ccccc3)n2-c2c(OC)cccc2OC)n1 (single isomer, unassigned) [Example 33]
COc1cccc(OC)c1-n1c(C(=O)NS(=O)(=O)Cc2ccccc2)nnc1-c1ccn(C)n1 [Example 4, N-(benzylsulfonyl)-4-(2,6-dimethoxyphenyl)-5-(1-methyl-1H-pyrazol-3-yl)-4H-1,2,4-triazole-3-carboxamide]
CCn1ccc(-c2nnc(C(=O)NS(=O)(=O)Cc3ccccc3)n2-c2c(OC)cccc2OC)n1 [Example 5, N-(benzylsulfonyl)-4-(2,6-dimethoxyphenyl)-5-(1-ethyl-1H-pyrazol-3-yl)-4H-1,2,4-triazole-3-carboxamide]
COc1nc(-c2nnc(C(=O)NS(=O)(=O)Cc3ccccc3)n2-c2c(OC)cccc2OC)cs1 [Example 6, N-(benzylsulfonyl)-4-(2,6-dimethoxyphenyl)-5-(2-methoxythiazol-4-yl)-4H-1,2,4-triazole-3-carboxamide]
CCOc1cccc(-c2nnc(C(=O)N(C)S(=O)(=O)Cc3ccccc3)n2-c2c(OC)cccc2OC)n1 [Example 8, N-(benzylsulfonyl)-4-(2,6-dimethoxyphenyl)-5-(6-ethoxypyridin-2-yl)-N-methyl-4H-1,2,4-triazole-3-carboxamide]
CCOc1cccc(-c2nnc(C(=O)NS(C)(=O)=O)n2-c2c(OC)cccc2OC)n1 [Example 9, 4-(2,6-Dimethoxyphenyl)-5-(6-ethoxypyridin-2-yl)-N-(methylsulfonyl)-4H-1,2,4-triazole-3-carboxamide]
COc1cccc(-c2nnc(C(=O)NS(=O)(=O)Cc3ccccc3)n2-c2c(OC)cccc2OC)n1 [Example 13, N-(benzylsulfonyl)-4-(2,6-dimethoxyphenyl)-5-(6-methoxypyridin-2-yl)-4H-1,2,4-triazole-3-carboxamide]
COc1cccc(OC)c1-n1c(C(=O)NS(=O)(=O)Cc2ccccc2)nnc1-c1cccc(C)n1 [Example 14, N-(benzylsulfonyl)-4-(2,6-dimethoxyphenyl)-5-(6-methylpyridin-2-yl)-4H-1,2,4-triazole-3-carboxamide]
COc1cccc(OC)c1-n1c(C(=O)NS(=O)(=O)Cc2ccccc2)nnc1-c1ccc(C)cn1 [Example 15, N-(benzylsulfonyl)-4-(2,6-dimethoxyphenyl)-5-(5-methylpyridin-2-yl)-4H-1,2,4-triazole-3-carboxamide]
COc1cccc(OC)c1-n1c(C(=O)NS(=O)(=O)Cc2ccccc2)nnc1-c1ccc(C)o1 [Example 16, N-(benzylsulfonyl)-4-(2,6-dimethoxyphenyl)-5-(5-methylfuran-2-yl)-4H-1,2,4-triazole-3-carboxamide]
COc1cccc(OC)c1-n1c(C(=O)NS(=O)(=O)Cc2ccccc2)nnc1-c1cccc(OC2CCC2)n1 [Example 18, N-(benzylsulfonyl)-5-(6-cyclobutoxypyridin-2-yl)-4-(2,6-dimethoxyphenyl)-4H-1,2,4-triazole-3-carboxamide]

EC50, 100 to 10000 nM:
CCOCc1nnc(C(=O)NS(=O)(=O)Cc2ccccc2)n1-c1c(OC)cccc1OC [Example 7, N-(benzylsulfonyl)-4-(2,6-dimethoxyphenyl)-5-(ethoxymethyl)-4H-1,2,4-triazole-3-carboxamide]
COc1ccn(-c2nnc(C(=O)NS(=O)(=O)Cc3ccccc3)n2-c2c(OC)cccc2OC)n1 [Example 10, N-(enzylsulfonyl)-4-(2,6-dimethoxyphenyl)-5-(3-methoxy-1H-pyrazol-1-yl)-4H-1,2,4-triazole-3-carboxamide]
COc1cccc(OC)c1-n1c(C(=O)NS(=O)(=O)Cc2ccccc2)nnc1-c1cc(C2CC2)no1 [Example 11, N-(benzylsulfonyl)-5-(3-cyclopropylisoxazol-5-yl)-4-(2,6-dimethoxyphenyl)-4H-1,2,4-triazole-3-carboxamide]
COc1cccc(OC)c1-n1c(C(=O)NS(=O)(=O)Cc2ccccc2)nnc1-c1ncc(C)c(OC)n1 [Example 12, N-(benzylsulfonyl)-4-(2,6-dimethoxyphenyl)-5-(4-methoxy-5-methylpyrimidin-2-yl)-4H-1,2,4-triazole-3-carboxamide]

EC50, < 1 nM:
CCOc1cccc(-c2nnc(C(=O)NS(=O)(=O)[C@@H](C)c3ccccc3)n2-c2c(OC)cccc2OC)n1 (single isomer, unassigned) [Example 39]
CCOc1cccc(-c2nnc(C(=O)NS(=O)(=O)[C@H](C)c3ccccc3)n2-c2c(OC)cccc2OC)n1 (single isomer, unassigned) [Example 40]
CCOc1cccc(-c2nnc(C(=O)NS(=O)(=O)C[C@@H](C)c3ccccc3)n2-c2c(OC)cccc2OC)n1 (single isomer, unassigned) [Example 45]
CCOc1cccc(-c2nnc(C(=O)NS(=O)(=O)C[C@H](C)c3ccccc3)n2-c2c(OC)cccc2OC)n1 (single isomer, unassigned) [Example 46]
CCOc1cccc(-c2nnc(C(=O)NS(=O)(=O)[C@H]3CCc4ccccc4C3)n2-c2c(OC)cccc2OC)n1 (single isomer, unassigned) [Example 47]
CCOc1cccc(-c2nnc(C(=O)NS(=O)(=O)[C@@H]3CCc4ccccc4C3)n2-c2c(OC)cccc2OC)n1 (single isomer, unassigned) [Example 48]
CCOc1cccc(-c2nnc(C(=O)NS(=O)(=O)c3ccccc3)n2-c2c(OC)cccc2OC)n1 [Example 1, 4-(2,6-dimethoxyphenyl)-5-(6-ethoxypyridin-2-yl)-N-(phenylsulfonyl)-4H-1,2,4-triazole-3-carboxamide]
CCOc1cccc(-c2nnc(C(=O)NS(=O)(=O)Cc3ccccc3)n2-c2c(OC)cccc2OC)n1 [Example 2, N-(benzylsulfonyl)-4-(2,6-dimethoxyphenyl)-5-(6-ethoxypyridin-2-yl)-4H-1,2,4-triazole-3-carboxamide]
CCOc1cccc(-c2nnc(C(=O)NS(=O)(=O)CCc3ccccc3)n2-c2c(OC)cccc2OC)n1 [Example 3, 4-(2,6-dimethoxyphenyl)-5-(6-ethoxypyridin-2-yl)-N-(phenethylsulfonyl)-4H-1,2,4-triazole-3-carboxamide]
COc1cccc(OC)c1-n1c(C(=O)NS(=O)(=O)Cc2ncccn2)nnc1-c1ccc(C)o1 [Example 17, 4-(2,6-Dimethoxyphenyl)-5-(5-methylfuran-2-yl)-N-((pyrimidin-2-ylmethyl)sulfonyl)-4H-1,2,4-triazole-3-carboxamide]
COc1cccc(OC)c1-n1c(C(=O)NS(=O)(=O)Cc2ccccc2)nnc1-c1cccc(OC2CC2)n1 [Example 19, N-(benzylsulfonyl)-5-(6-cyclopropoxypyridin-2-yl)-4-(2,6-dimethoxyphenyl)-4H-1,2,4-triazole-3-carboxamide]
COc1cccc(OC)c1-n1c(C(=O)NS(=O)(=O)Cc2ncccn2)nnc1-c1cccc(OC2CC2)n1 [Example 20, 5-(6-Cyclopropoxypyridin-2-yl)-4-(2,6-dimethoxyphenyl)-N-((pyrimidin-2-ylmethyl)sulfonyl)-4H-1,2,4-triazole-3-carboxamide]
